Source: PubChem BioAssay (NCI)
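Cultured in 96-well plates, cells were exposed to test compound for 48 hours across five concentrations. GI50 = concentration required for 50% inhibition of growth. TGI is the concentration that stops growth completely.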

Columns and labels:
Test in all cases: DTP human tumour cell line panel, 48 h
[1] = system: HCT-15 colon
[2] = system: SN12C renal
[3] = system: PC-3 prostate
[4] = system: UACC-257 melanoma
[5] = system: BT-549 breast
[6] = system: SF-539 CNS
[7] = system: U251 CNS
[8] = system: MALME-3M melanoma
[9] = system: SNB-19 CNS
[10] = system: 786-0 renal
[11] = system: SR leukemia
[12] = system: SK-MEL-2 melanoma
[13] = system: UACC-62 melanoma
[14] = system: CAKI-1 renal
[15] = system: RXF 393 renal
[16] = system: OVCAR-3 ovarian
[17] = system: CCRF-CEM leukemia
[18] = system: SNB-75 CNS
[19] = system: NCI/ADR-RES ovarian
[20] = system: EKVX NSCLC
[21] = system: MOLT-4 leukemia
[22] = system: DU-145 prostate
[23] = system: MDA-MB-231 breast
[24] = system: HT29 colon
[25] = system: COLO 205 colon
[26] = system: A549 NSCLC
[27] = system: HCT-116 colon
[28] = system: MDA-MB-435
[29] = system: A498 renal
[30] = system: ACHN renal
[31] = system: SF-268 CNS
[32] = system: HOP-62 NSCLC
[33] = system: HCC-2998 colon
[34] = system: M14 melanoma
[35] = system: NCI-H226 lung
[36] = system: SK-OV-3 ovarian
[37] = system: K-562 leukemia
[38] = system: OVCAR-5 ovarian
[39] = system: NCI-H460 lung
[40] = system: HL-60(TB) leukemia
[41] = system: KM12 colon
[42] = system: RPMI-8226 leukemia
[43] = system: SK-MEL-5 melanoma
[44] = system: OVCAR-4 ovarian
[45] = system: SF-295 CNS
[46] = system: HS 578T breast
[47] = system: UO-31 renal
[48] = system: IGROV1 ovarian
[49] = system: NCI-H522 lung
[50] = system: MCF7 breast
[51] = system: SW-620 colon
[52] = system: OVCAR-8 ovarian
[53] = system: TK-10 renal
[54] = system: HOP-92 NSCLC
[55] = system: SK-MEL-28 melanoma
[56] = system: T-47D breast
[57] = system: LOX IMVI melanoma

With `CCCCCCNC(=O)Oc1ccc(/C(=C(/C)c2ccccc2)c2ccc(OCCN3CCCCCC3)cc2)cc1` the GI50 [1] was 2.83 µM, the TGI [1] was 9.61 µM and the GI50 [2] was 10.4 µM. It also gave a TGI [2] of 23.7 µM, a GI50 [3] of 6.2 µM and a TGI [3] of 20.4 µM. It also gave a GI50 [4] of 3.75 µM, a TGI [4] of 14.5 µM and a GI50 [5] of 8.55 µM. For the same molecule, the TGI [5] was 21.8 µM, the GI50 [6] was 7.23 µM and the TGI [6] was 21 µM. It also gave a GI50 [7] of 7.25 µM, a TGI [7] of 20.7 µM and a GI50 [8] of 7.97 µM. For the same molecule, the TGI [8] was 21.5 µM, the GI50 [9] was 16.6 µM and the TGI [9] was 69.8 µM. For the same molecule, the GI50 [10] was 5.42 µM, the TGI [10] was 18.7 µM and the GI50 [11] was 2.58 µM. For the same molecule, the TGI [11] was 12 µM, the GI50 [12] was 14.1 µM and the TGI [12] was 27.6 µM. It also gave a GI50 [13] of 9.09 µM, a TGI [13] of 22 µM and a GI50 [14] of 2.74 µM. The TGI [14] was 11.9 µM, the GI50 [15] was 2.63 µM and the TGI [15] was 9.11 µM. For the same molecule, the GI50 [16] was 12 µM, the TGI [16] was 28.8 µM and the GI50 [17] was 11.5 µM. The TGI [17] was > 100 µM, the GI50 [18] was 9.25 µM and the TGI [18] was 21.7 µM. For the same molecule, the GI50 [19] was 12.3 µM, the TGI [19] was 28.8 µM and the GI50 [20] was 13.2 µM. It also gave a TGI [20] of 31.2 µM, a GI50 [21] of 3.48 µM and a TGI [21] of 25 µM. The GI50 [22] was 15.7 µM, the TGI [22] was 37.7 µM and the GI50 [23] was 12.8 µM. The TGI [23] was 26.8 µM, the GI50 [24] was 3.07 µM and the TGI [24] was 11.1 µM. It also gave a GI50 [25] of 3.14 µM, a TGI [25] of 12.1 µM and a GI50 [26] of 12.1 µM. It also gave a TGI [26] of 26.4 µM, a GI50 [27] of 4.33 µM and a TGI [27] of 16.9 µM. For the same molecule, the GI50 [28] was 10.8 µM, the TGI [28] was 23.3 µM and the GI50 [29] was 15.7 µM. It also gave a TGI [29] of 29.4 µM, a GI50 [30] of 13.3 µM and a TGI [30] of 26.2 µM. The GI50 [31] was 12.7 µM, the TGI [31] was 29.4 µM and the GI50 [32] was 13 µM. It also gave a TGI [32] of 26.9 µM, a GI50 [33] of 11 µM and a TGI [33] of 23.5 µM. The GI50 [34] was 2.89 µM, the TGI [34] was 11.1 µM and the GI50 [35] was 13.3 µM. It also gave a TGI [35] of 28.7 µM, a GI50 [36] of 13 µM and a TGI [36] of 26.4 µM. For the same molecule, the GI50 [37] was 2.87 µM, the TGI [37] was > 100 µM and the GI50 [38] was 12.4 µM. It also gave a TGI [38] of 27 µM, a GI50 [39] of 4.27 µM and a TGI [39] of 16.1 µM. The GI50 [40] was 2.79 µM, the TGI [40] was 17.7 µM and the GI50 [41] was 6.31 µM. The TGI [41] was 35.6 µM, the GI50 [42] was 3.99 µM and the TGI [42] was 23 µM. It also gave a GI50 [43] of 14.2 µM, a TGI [43] of 27.6 µM and a GI50 [44] of 10 µM. It also gave a TGI [44] of 23.4 µM, a GI50 [45] of 5.74 µM and a TGI [45] of 18.6 µM. It also gave a GI50 [46] of 8.02 µM, a TGI [46] of 26.9 µM and a GI50 [47] of 4.02 µM. The TGI [47] was 17 µM, the GI50 [48] was 11.9 µM and the TGI [48] was 27.9 µM. It also gave a GI50 [49] of 12.6 µM, a TGI [49] of 26 µM and a GI50 [50] of 0.172 µM. It also gave a TGI [50] of 13.1 µM, a GI50 [51] of 3.18 µM and a TGI [51] of 12.5 µM. For the same molecule, the GI50 [52] was 13.1 µM, the TGI [52] was 26.6 µM and the GI50 [53] was 16.3 µM. The TGI [53] was 30.5 µM, the GI50 [54] was 2.9 µM and the TGI [54] was 14.9 µM. The GI50 [55] was 5.98 µM, the TGI [55] was 19.8 µM and the GI50 [56] was 3.07 µM. It also gave a TGI [56] of 21 µM.
`CCc1cccc2c3c(sc12)C(c1ccc(OC)cc1)C(C#N)=C(/N=C/c1ccc(Cl)cc1)O3` (stereo unspecified) was tested, and the GI50 [1] was 0.6 µM, the TGI [1] was 11.2 µM and the GI50 [2] was 3.76 µM. For the same molecule, the TGI [2] was 19.1 µM, the GI50 [3] was 1.83 µM and the TGI [3] was 22.1 µM. For the same molecule, the GI50 [4] was 16.1 µM, the TGI [4] was > 100 µM and the GI50 [5] was 4.23 µM. The TGI [5] was 39.7 µM, the GI50 [6] was 1.59 µM and the TGI [6] was 4.29 µM. For the same molecule, the GI50 [7] was 3 µM, the TGI [7] was 13.8 µM and the GI50 [8] was 0.921 µM. For the same molecule, the TGI [8] was 44.3 µM, the GI50 [9] was 3.56 µM and the TGI [9] was > 100 µM. The GI50 [10] was 2.2 µM, the TGI [10] was 16.1 µM and the GI50 [11] was 0.361 µM. The TGI [11] was 5.97 µM, the GI50 [12] was 0.987 µM and the TGI [12] was 5.95 µM. For the same molecule, the GI50 [13] was 0.54 µM, the TGI [13] was 30.5 µM and the GI50 [14] was 0.595 µM. The TGI [14] was 29.1 µM, the GI50 [15] was 0.72 µM and the TGI [15] was 2.56 µM. For the same molecule, the GI50 [16] was 0.554 µM, the TGI [16] was 4.49 µM and the GI50 [17] was 0.792 µM. For the same molecule, the TGI [17] was 7.96 µM, the GI50 [18] was 1.35 µM and the TGI [18] was 15.3 µM. It also gave a GI50 [19] of 0.55 µM, a TGI [19] of 4.7 µM and a GI50 [20] of 5.94 µM. For the same molecule, the TGI [20] was > 100 µM, the GI50 [21] was 2.25 µM and the TGI [21] was 17.1 µM. The GI50 [22] was 3.3 µM, the TGI [22] was > 100 µM and the GI50 [23] was 2.95 µM. It also gave a TGI [23] of 13.6 µM, a GI50 [24] of 2.31 µM and a TGI [24] of 6.26 µM. It also gave a GI50 [25] of 2.2 µM, a TGI [25] of 5 µM and a GI50 [26] of 5.39 µM. The TGI [26] was > 100 µM, the GI50 [27] was 1.07 µM and the TGI [27] was 10.3 µM. The GI50 [28] was 0.227 µM, the TGI [28] was 0.578 µM and the GI50 [29] was 20.1 µM. The TGI [29] was > 100 µM, the GI50 [30] was 3.16 µM and the TGI [30] was 19.4 µM. The GI50 [31] was 5.6 µM, the TGI [31] was 44.4 µM and the GI50 [32] was 2.5 µM. The TGI [32] was 20.2 µM, the GI50 [33] was 1.79 µM and the TGI [33] was 4.57 µM. It also gave a GI50 [34] of 1.24 µM, a TGI [34] of 5.17 µM and a GI50 [57] of 1.87 µM. The TGI [57] was 15 µM, the GI50 [35] was 2.59 µM and the TGI [35] was 13.1 µM. The GI50 [36] was 2.42 µM, the TGI [36] was 45.4 µM and the GI50 [37] was 0.363 µM. The TGI [37] was > 100 µM, the GI50 [38] was 3.97 µM and the TGI [38] was 27.8 µM. It also gave a GI50 [39] of 1.02 µM, a TGI [39] of 10.4 µM and a GI50 [40] of 0.563 µM. For the same molecule, the TGI [40] was 5.98 µM, the GI50 [41] was 2.06 µM and the TGI [41] was 33.2 µM. It also gave a GI50 [42] of 2.28 µM, a TGI [42] of 7.27 µM and a GI50 [43] of 2.81 µM. The TGI [43] was 11.8 µM, the GI50 [44] was 6.65 µM and the TGI [44] was > 100 µM. For the same molecule, the GI50 [45] was 1.26 µM, the TGI [45] was 15.5 µM and the GI50 [46] was 1.9 µM. The TGI [46] was 7.8 µM, the GI50 [47] was 1.85 µM and the TGI [47] was 49.6 µM. The GI50 [48] was 1.67 µM, the TGI [48] was > 100 µM and the GI50 [49] was 0.78 µM. For the same molecule, the TGI [49] was 2.7 µM, the GI50 [50] was 0.859 µM and the TGI [50] was 14.1 µM. It also gave a GI50 [51] of 1.14 µM, a TGI [51] of 15.7 µM and a GI50 [52] of 2.15 µM. The TGI [52] was 7.09 µM, the GI50 [53] was 20.5 µM and the TGI [53] was > 100 µM. For the same molecule, the GI50 [54] was 5.48 µM, the TGI [54] was 53.3 µM and the GI50 [55] was 4.85 µM. For the same molecule, the TGI [55] was 28 µM, the GI50 [56] was 2.43 µM and the TGI [56] was > 100 µM.
